In ChEMBL document CHEMBL1123770, “Systematic synthesis and biological evaluation of alpha- and beta-D-lyxofuranosyl nucleosides of the five naturally occurring nucleic acid bases” (1987):
In brackets after ≈: the same amount, converted by molar mass.

Experiments:
WI-38 [1] = test: Minimum cytotoxic concentration (MCC) required to cause a microscopically detectable alteration of host cell morphology, when incubated with WI-38 cells; assay type: functional; conditions: Homo sapiens
Oryctolagus cuniculus [2] = organism: Oryctolagus cuniculus; test: Minimum inhibitory concentration (MIC) required to reduce virus-induced cytopathogenicity by 50% against Vaccinia virus in primary rabbit kidney cells; assay type: functional
HeLa [3] = test: Minimum inhibitory concentration (MIC) required to reduce virus-induced cytopathogenicity by 50% against Vesicular stomatitis virus in HeLa cells; assay type: functional; conditions: Homo sapiens
Vero [4] = test: Minimum inhibitory concentration (MIC) required to reduce virus-induced cytopathogenicity by 50% against Coxsackie virus B4 in African green monkey kidney (Vero B)cells; assay type: functional, Chlorocebus sabaeus
Vero [5] = test: Minimum inhibitory concentration (MIC) required to reduce virus-induced cytopathogenicity by 50% against Parainfluenza virus-3 in African green monkey kidney (Vero B)cells; assay type: functional, Chlorocebus sabaeus
Vero [6] = test: Minimum cytotoxic concentration (MCC) required to cause a microscopically detectable alteration of host cell morphology, when incubated with Vero B cells; assay type: functional; conditions: Chlorocebus sabaeus
HeLa [7] = test: Minimum cytotoxic concentration (MCC) required to cause a microscopically detectable alteration of host cell morphology, when incubated with HeLa cells; assay type: functional; conditions: Homo sapiens
Vero [8] = test: Minimum inhibitory concentration (MIC) required to reduce virus-induced cytopathogenicity by 50% against forest virus in African green monkey kidney (Vero B)cells; assay type: functional; conditions: Chlorocebus sabaeus
Oryctolagus cuniculus [9] = organism: Oryctolagus cuniculus; test: Minimum inhibitory concentration (MIC) required to reduce virus-induced cytopathogenicity by 50% against KOS strain of Herpes simplex virus-1 in primary rabbit kidney cells; assay type: functional
WI-38 [10] = test: Minimum inhibitory concentration (MIC) required to reduce virus-induced cytopathogenicity by 50% against Rhinovirus-1A in human diploid (WI-38)cells; assay type: functional
WI-38 [11] = test: Minimum inhibitory concentration (MIC) required to reduce virus-induced cytopathogenicity by 50% against Rhinovirus 9 in human diploid (WI-38)cells; assay type: functional
Oryctolagus cuniculus [12] = organism: Oryctolagus cuniculus; test: Minimum inhibitory concentration (MIC) required to reduce virus-induced cytopathogenicity by 50% against G strain of Herpes simplex virus-2 in primary rabbit kidney cells; assay type: functional
HeLa [13] = test: Minimum inhibitory concentration (MIC) required to reduce virus-induced cytopathogenicity by 50% against Polio virus-1 in HeLa cells; assay type: functional; conditions: Homo sapiens
Vero [14] = test: Minimum inhibitory concentration (MIC) required to reduce virus-induced cytopathogenicity by 50% against Reo virus-1 in African green monkey kidney (Vero B)cells; assay type: functional, Chlorocebus sabaeus
Oryctolagus cuniculus [15] = organism: Oryctolagus cuniculus; test: Minimum inhibitory concentration (MIC) required to reduce virus-induced cytopathogenicity by 50% against Vesicular stomatitis virus in primary rabbit kidney cells; assay type: functional
HeLa [16] = test: Minimum inhibitory concentration (MIC) required to reduce virus-induced cytopathogenicity by 50% against Coxsackie virus B4 in HeLa cells; assay type: functional; conditions: Homo sapiens
Vero [17] = test: Minimum inhibitory concentration (MIC) required to reduce virus-induced cytopathogenicity by 50% against Sindbis virus in African green monkey kidney (Vero B)cells; assay type: functional; conditions: Chlorocebus sabaeus
[18] = Minimum cytotoxic concentration (MCC) required to cause a microscopically detectable alteration of host cell morphology, when incubated with PRK cells; assay type: functional; conditions: Oryctolagus cuniculus
[19] = Oryctolagus cuniculus, read-out: MIC
[20] = Chlorocebus sabaeus, read-out: MIC

Structure (SMILES)	MCC (WI-38 [1]) [µg/mL]	MIC (Oryctolagus cuniculus [2]; [19]) [µg/mL]	MIC (Vero [4]; [20]) [µg/mL]	MIC (Vero [5]; [20]) [µg/mL]	MCC (Vero [6]) [µg/mL]	MCC (HeLa [7]) [µg/mL]	MIC (Vero [8]) [µg/mL]	MIC (Oryctolagus cuniculus [9]) [µg/mL]	MIC (WI-38 [10]) [µg/mL]	MIC (WI-38 [11]; Homo sapiens, read-out: MIC) [µg/mL]	MIC (Oryctolagus cuniculus [12]; [19]) [µg/mL]	MIC (Vero [14]; [20]) [µg/mL]	MIC (HeLa [16]) [µg/mL]	MIC (Vero [17]) [µg/mL]	MCC [18] [µg/mL]	also measured
NC(=O)c1ncn([C@@H]2O[C@H](CO)[C@@H](O)[C@H]2O)n1 [RIBAVIRIN]	> 400	20 (≈ 81.9 µM)	10 (≈ 40.9 µM)	70 (≈ 287 µM)	> 400	> 200	> 400	> 400	150 (≈ 614 µM)	> 400	> 400	70 (≈ 287 µM)	70 (≈ 287 µM)	70 (≈ 287 µM)	> 400	MIC (HeLa [3]): 20 µg/mL (≈ 81.9 µM); MIC (HeLa [13]): 70 µg/mL (≈ 287 µM); MIC (Oryctolagus cuniculus [15]): 150 µg/mL (≈ 614 µM)
Nc1ccn([C@@H]2O[C@H](CO)[C@H](O)[C@@H]2O)c(=O)n1	> 200	70 (≈ 288 µM)	> 200	> 100	> 200	> 200	> 200	> 200	> 200	> 200	> 200	> 200	> 200	> 100	> 200	
Nc1ncnc2c1ncn2[C@@H]1O[C@H](CO)[C@H](O)[C@@H]1O (stereo in doubt; 22d)									> 400							MIC (Oryctolagus cuniculus [2]): 200 µg/mL (≈ 748 µM); MIC (Vero [4]): 100 µg/mL (≈ 374 µM); MIC (Vero [5]): >200 µg/mL; MIC (WI-38 [11]): >400 µg/mL; MIC (Oryctolagus cuniculus [12]): >400 µg/mL; MIC (Vero [14]): >200 µg/mL
O=c1ccn([C@H]2O[C@H](CO)[C@H](O)[C@@H]2O)c(=O)[nH]1	> 400		> 400	> 400	> 400	> 400	> 400	> 400	> 400	> 400	> 400	> 200	> 400	> 400	> 400	
Nc1nc2c(ncn2[C@@H]2O[C@H](CO)[C@H](O)[C@@H]2O)c(=O)[nH]1	> 400	100 (≈ 353 µM)	> 400	> 400	> 400	> 400	> 400	> 400	> 400	> 400	400 (≈ 1410 µM)	> 400	> 400	> 400	> 400	
Nc1ccn([C@H]2O[C@H](CO)[C@H](O)[C@@H]2O)c(=O)n1	> 400		> 400	> 400	> 400	> 400	> 400	> 400	> 400	> 400	> 400	> 400	> 400	> 400	> 400	
O=c1ccn([C@@H]2O[C@H](CO)[C@H](O)[C@@H]2O)c(=O)[nH]1	> 400		> 100	> 400	> 400	> 400	> 400	> 400	> 400	100 (≈ 409 µM)	> 400	> 400	> 400	> 400	> 400	
Nc1ncnc2c1ccn2[C@@H]1O[C@H](CO)[C@@H](O)[C@H]1O [TUBERCIDIN]	> 4	0.2 (≈ 0.751 µM)	0.2 (≈ 0.751 µM)	> 0.1	> 0.4	> 1	> 0.4	> 0.4	0.02 (≈ 0.0751 µM)	> 4	> 0.4	> 0.1	0.2 (≈ 0.751 µM)	0.2 (≈ 0.751 µM)	1	MIC (HeLa [3]): 0.07 µg/mL (≈ 0.263 µM); MIC (HeLa [13]): 0.07 µg/mL (≈ 0.263 µM); MIC (Oryctolagus cuniculus [15]): 0.07 µg/mL (≈ 0.263 µM)
Cc1cn([C@H]2O[C@H](CO)[C@H](O)[C@@H]2O)c(=O)[nH]c1=O	> 400		> 400	> 400	> 400	> 400	> 400	> 400	> 400	> 400	> 400	> 200	> 400	> 400	> 400	
Nc1nc2c(ncn2[C@H]2O[C@H](CO)[C@H](O)[C@@H]2O)c(=O)[nH]1	> 400		> 400	> 400	> 400	> 400	> 400	> 400	> 400	200 (≈ 706 µM)	> 400	> 400	> 400	> 400	> 400	
